One compound from patent publication US12612408B2, “Pyrazolone-fused pyrimidine compound, preparation method for same and applications thereof” (SHANGHAI PHARMACEUTICALS HOLDING CO., LTD., priority 2019, dated 2026) can be followed below.

The target in the test is T1, WEE1 kinase (Homo sapiens, UniProt P30291).
T1 construct: purchased CarnaBiosciences, Inc. 05-177
Description: Inhibitory effect of compound on WEE1 kinase in vitro (ELISA). Format: biochemical. The conditions noted are these: ATP concentration of Km. How it is done: The tested compounds were screened on WEE1 kinase with ATP concentration of Km by ELISA. Compounds were screened on WEE1 kinase to evaluate the kinase inhibitory activity of the tested compounds. In the detection process, the initial concentration of the tested compounds was all selected as 100 nM, and each compound was selected with 6 gradient dilution concentrations, the gradient dilution ratio was 4-fold, and two replicate wells were detected for each concentration, MK1775 was used as the standard control.
WEE1, purchased from CarnaBiosciences, Inc., Item No. 05-177; dimethyl sulfoxide, purchased from Sigma-Aldrich, Item No. D8418; ATP, purchased from Sigma-Aldrich, Item No. A7699; DTT solution, purchased from Sigma-Aldrich, Item No. 43816; protein tyrosine kinase (PTK) substrate (poly-Glu-Tyr), purchased from Sigma-Aldrich, Item No. P4476; P-Tyr (PY99), purchased from Santa Cruz, Item No. sc-7020; Anti-mouse IgG HRP-linked Antibody, purchased from Santa Cruz, Item No. 7076S; TMB liquid Substrate System, purchased from Sigma-Aldrich, Item No. T0440; Costar Stripwell Microplate No Lid 1×8 Flat Bottom, Certified High Binding, purchased from Sigma-Aldrich, Item No. 42592; 96-well compound plate, purchased from Thermo Scientific, Item No. 267245.
• 1. Coating substrate: 1) An appropriate volume of substrate storage solution protein tyrosine kinase (PTK) substrate (poly-Glu-Tyr) was taken, diluted 10 times with PBS, and the concentration was diluted from […]. The mixture was added to a high adsorption 96-well plate at 125 μL per well. The plate was placed in an incubator at 37° C. for overnight coating. 2) After 24 hours, the 96-well plate was taken out, the liquid in the 96-well plate was poured out, cleaned with washing buffer for 3 times, and the incubator at 37° C. was inverted and dried for 2 hours. • 2. Compound preparation and transfer: 1) compound dilution: 10 mM of the test compound storage solution was taken, the compound in 96-well compound plate was diluted with DMSO in multiple steps to obtain the initial concentration of 100× compound as the first concentration, and then DMSO was used for 4-fold gradient dilution, for a total of 6 concentrations; after that, 2 μL of the gradient dilution solution was added to 48 μL of 1× reaction buffer respectively to prepare 4× compound; 2) 4× compounds were transferred: 10 μL of 4× compounds from the 96-well compound plate configured in the previous step were transferred into the dried high adsorption 96-well plate; 10 μL of the following liquids were added to the compound-free control wells and ATP-control wells: 2 μL of DMSO was added to 48 μL of 1× reaction buffer. • 3. Enzyme reaction stage: 1) WEE1 kinase and ATP were prepared into 2× enzyme solution and 4×ATP solution respectively with 1× reaction buffer. In this screening, the final concentration of WEE1 kinase was: 0.15 ng/μL and the final concentration of ATP was: […]; 2) 20 μL of enzyme solution of 2 was added to the high adsorption 96-well plate; 3) 10 μL of 4×ATP solution was added to the high adsorption 96-well plate and 10 μL of 1× reaction buffer was added to the ATP-control group; 4) the plate was placed in HERAEUS Multifuge X1R centrifuge at 2000 rpm for 20 s and then placed at room temperature and reacted for 60 min. • 4. Reaction termination stage: 1) the reaction mixture in the plate was poured out, 200 μL of washing buffer was added to each well, and washed for 5 times; the primary antibody P-Tyr (PY99) (dilution ratio 1:2000) was added, 100 μL per well, at room temperature for 30 min. 2) The primary antibody in the plate was poured out, 200 μL of washing buffer was added to each well, and washed for 5 times; the second antibody Anti-mouse IgG HRP-linked Antibody (dilution ratio 1:2000) was added, 100 μL per well, at room temperature for 30 min.

T1 sequence (P30291 whole entry): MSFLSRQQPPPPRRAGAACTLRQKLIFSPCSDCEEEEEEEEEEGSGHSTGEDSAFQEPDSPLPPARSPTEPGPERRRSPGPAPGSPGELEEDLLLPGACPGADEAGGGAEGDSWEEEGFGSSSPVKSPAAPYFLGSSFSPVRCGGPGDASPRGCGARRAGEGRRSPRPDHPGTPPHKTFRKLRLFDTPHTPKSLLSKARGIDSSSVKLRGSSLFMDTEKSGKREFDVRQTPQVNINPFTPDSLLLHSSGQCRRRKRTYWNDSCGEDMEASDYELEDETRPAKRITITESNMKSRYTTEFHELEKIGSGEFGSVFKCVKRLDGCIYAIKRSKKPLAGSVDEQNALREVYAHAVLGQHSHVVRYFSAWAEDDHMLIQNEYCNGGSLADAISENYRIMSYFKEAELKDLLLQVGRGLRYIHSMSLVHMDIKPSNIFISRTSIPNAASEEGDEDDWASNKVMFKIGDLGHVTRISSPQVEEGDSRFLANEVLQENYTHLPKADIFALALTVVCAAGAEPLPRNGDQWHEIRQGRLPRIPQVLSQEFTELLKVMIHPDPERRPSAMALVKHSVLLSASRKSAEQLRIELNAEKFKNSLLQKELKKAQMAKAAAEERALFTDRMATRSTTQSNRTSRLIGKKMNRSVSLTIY

Consider `C=CCn1c(=O)c2cnc(Nc3ccc(C4CCC(N5CCC5)CC4)cc3)nc2n1-c1cccc(C(C)(C)O)n1` (single isomer, unassigned) [Compound I-8-1], for which the IC50 (in general, the point on the concentration scale where inhibition reaches its midpoint) was 1.52 nM.
